What was measured:
[1] = tested on: C57BL/6N (WT) mice; type: in vivo, mouse; conditions: WT mice fasted 12 h, glucose 2 g/kg ip at time zero
Protocol: In vivo experiments were conducted with male C57BL/6N (WT) mice 12–16 weeks-old (University of São Paulo Medical School Animal Facility, SP, Brazil). Mice were maintained in individual ventilated cages (Amresco, SP, Brazil), under standardized conditions with an artificial 12 h dark–light cycle, with free access to standard chow (Nuvital Nutrientes S.A., Colombo, PR, Brazil) and drinking water ad libitum. The number of animals used was the minimum necessary to obtain statistically significant results and they were maintained and used in accordance with the guidelines of the National Council for Control of Animal Experiments (CONCEA), following international norms of animal care and maintenance. Thus, we hereby state that all experimental protocols were previously approved by University of São Paulo Ethic committee councils from Biomedical Science Institute (approval number for mice experimentation ICB/USP 22/2017).
WT mice were fasted for 12 h and blood samples were taken before and at 15, 30, 60, 90, and 120 min after the intraperitoneal (ip) injection of 2 g/kg glucose. Glycemia was measured using a glucometer (Accu-Check Performa, ROCHE, São Paulo, Brazil). Peptides were evaluated to affect glucose uptake either after ip or oral (by gavage) administration. After 20 min glucose was administrated (blood glucose levels reached 400 mg/dL), animals received ip or oral administration of either saline, insulin (0.75 IU/kg), or peptide (Ric2 or Ric4; 600 µg/kg). In addition, a group of animals received oral administration of either water or Ric2 or Ric4 (600 µg/kg). Glycemia was measured as indicated following vehicle, insulin, or peptide administration.

[2] = tested on: Erk and Akt phosphorylation in epididymal adipose and tibial muscle tissues; assay: Erk and Akt phosphorylation in tissues after ip administration to WT mice; type: in vivo, mouse; conditions: 600 µg/kg ip, tissues collected 30 min after administration
Protocol: Western blotting experiments were performed to evaluate the expression levels of specific proteins. Briefly, cells or tissues as indicated were solubilized by directly adding RIPA buffer (50 mM Tris HCl, 150 mM NaCl, 1.0% v/v, NP-40, 0.5% w/v, sodium deoxycholate, 1.0 mM ethylenediamine tetraacetic acid, EDTA, 0.1% w/v, sodium dodecyl sulphate, SDS, and 0.01% w/v sodium azide, pH of 7.4) containing protease (P8340; Sigma Aldrich, Sao Paulo, Brazil) and phosphatase (P5726, Sigma Aldrich, Sao Paulo, Brazil) inhibitors cocktails, followed by sonication with a micro-tip for 5 s. After 30 min of incubation on ice, samples were centrifuged for 30 min at 12,000× g. Proteins from supernatants (50 µg) were separated by 10% SDS-PAGE and transferred to nitrocellulose membranes for immunoblotting with mouse monoclonal anti-phospho extracellular signal-regulated kinase 1/2 (anti-pErk; Erk 1/2 phosphorylation at Thr202-Tyr204; 1:1000; Cell Signaling, Boston, MA, USA), and rabbit polyclonal anti-total extracellular signal-regulated kinase 1/2 (Erk; anti-total Erk 1/2, 1:1000; Cell Signaling, Boston, MA, USA) antibodies. Blots were also treated with rabbit anti-phospho Akt (S473) (anti-pAkt, 1:1000) and mouse polyclonal anti-total Akt (anti-Akt, 1:1000) (Cell Signaling, Boston, MA, USA) and anti-myogenin (1:1000, Abcam, UK). Protein normalization indicated was performed using rabbit polyclonal anti-glyceraldehyde 3-phosphate dehydrogenase (GAPDH; 1:2000; Proteimax Biotechnology, São Paulo, Brazil) antibodies or anti-β-actin mouse antiserum (1:2000; Sigma Aldrich, Sao Paulo, Brazil). Blots were incubated with horseradish peroxidase-conjugated secondary antibodies for 3 h at room temperature. Western blot bands were visualized with Super-Signal West Pico Chemiluminescent substrate (Thermo Scientific) using the ChemiDoc™ MP Imaging System (BioRad, Hercules, CA, USA), and quantified using ImageJ 1.49 software. All results are expressed as the means ± standard error of the mean (SEM). The statistical comparisons were performed using Student’s t-test or analysis of variance (ANOVA), followed by ad-hoc Tukey’s test (n = 7). Data were statistically analyzed with GraphPad Prism software (GraphPad Software Inc, San Diego, CA, USA).
Figure 5 Western blotting for ERK and AKT in epididymal adipose and tibial muscle tissues following ip administration of Ric4 to WT mice. Mice were treated ip with vehicle (Control) or Ric4 (600 µg/kg). Tissues were collected 30 min after the Ric4 administration and processed for Western blots as detailed in Section 2.5. The phosphorylation of either ERK or AKT in epididymal adipose tissue (A,B) and tibial muscle tissue (C,D) were analyzed using antibodies anti-pErk (A,C) or anti-pAkt (B,D). […]

**Q.** Which “blood glucose levels in GTT, ip administration” value ([1]; peptide 600 µg/kg ip 20 min after glucose) does the source give for “LASVSTVLTSKYR [Ric4, intracellular peptide derived from hemoglobin alpha subunit, last 13 C-terminal amino acids]” here?
**A.** rapidly induced a decrease in blood glucose levels

**Q.** And the “blood glucose levels in GTT, oral administration” value ([1]; peptide 600 µg/kg orally by gavage)?
**A.** decreased blood glucose levels

**Q.** And the “Akt phosphorylation in epididymal adipose tissue” value [2]?
**A.** increased

**Q.** And the “Akt phosphorylation in tibial skeletal muscle” value [2]?
**A.** not Akt phosphorylation

**Q.** What about the “Erk phosphorylation in epididymal adipose tissue” value [2] of the same sequence?
**A.** increased

**Q.** What about the “Erk phosphorylation in tibial skeletal muscle” value [2] of the same sequence?
**A.** increased
